Measurements from PubChem BioAssay (NCI).
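Grown in 96-well plates, cells were treated for 48 hours with each compound at five concentrations. Insufficient inhibition: endpoint recorded as highest concentration tested. GI50 = concentration required for 50% inhibition of growth. The concentration for full growth arrest is given as TGI.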

How the values were obtained:
Test in all cases: growth of human tumour cells (NCI), 48 h
MDA-MB-231 breast = tested on: MDA-MB-231 breast
BT-549 breast = tested on: BT-549 breast
NCI-H460 lung = tested on: NCI-H460 lung
A498 renal = tested on: A498 renal
MALME-3M melanoma = tested on: MALME-3M melanoma
NCI-H226 lung = tested on: NCI-H226 lung
SW-620 colon = tested on: SW-620 colon
RPMI-8226 leukemia = tested on: RPMI-8226 leukemia
UO-31 renal = tested on: UO-31 renal
HS 578T breast = tested on: HS 578T breast
SNB-75 CNS = tested on: SNB-75 CNS
HL-60(TB) leukemia = tested on: HL-60(TB) leukemia
NCI-H23 lung = tested on: NCI-H23 lung
T-47D breast = tested on: T-47D breast
SN12C renal = tested on: SN12C renal
DU-145 prostate = tested on: DU-145 prostate
SF-268 CNS = tested on: SF-268 CNS
KM12 colon = tested on: KM12 colon
HCC-2998 colon = tested on: HCC-2998 colon
SK-MEL-28 melanoma = tested on: SK-MEL-28 melanoma
UACC-257 melanoma = tested on: UACC-257 melanoma
SK-MEL-5 melanoma = tested on: SK-MEL-5 melanoma
SK-OV-3 ovarian = tested on: SK-OV-3 ovarian
IGROV1 ovarian = tested on: IGROV1 ovarian
SF-539 CNS = tested on: SF-539 CNS
CCRF-CEM leukemia = tested on: CCRF-CEM leukemia
SR leukemia = tested on: SR leukemia
HOP-92 NSCLC = tested on: HOP-92 NSCLC
NCI/ADR-RES ovarian = tested on: NCI/ADR-RES ovarian
M14 melanoma = tested on: M14 melanoma
EKVX NSCLC = tested on: EKVX NSCLC
LOX IMVI melanoma = tested on: LOX IMVI melanoma
RXF 393 renal = tested on: RXF 393 renal
UACC-62 melanoma = tested on: UACC-62 melanoma
SNB-19 CNS = tested on: SNB-19 CNS
HT29 colon = tested on: HT29 colon
K-562 leukemia = tested on: K-562 leukemia
MOLT-4 leukemia = tested on: MOLT-4 leukemia
MCF7 breast = tested on: MCF7 breast
OVCAR-8 ovarian = tested on: OVCAR-8 ovarian
OVCAR-4 ovarian = tested on: OVCAR-4 ovarian
A549 NSCLC = tested on: A549 NSCLC
TK-10 renal = tested on: TK-10 renal
SK-MEL-2 melanoma = tested on: SK-MEL-2 melanoma
SF-295 CNS = tested on: SF-295 CNS
OVCAR-5 ovarian = tested on: OVCAR-5 ovarian
U251 CNS = tested on: U251 CNS
COLO 205 colon = tested on: COLO 205 colon
786-0 renal = tested on: 786-0 renal
PC-3 prostate = tested on: PC-3 prostate
HCT-116 colon = tested on: HCT-116 colon
HOP-62 NSCLC = tested on: HOP-62 NSCLC
NCI-H522 lung = tested on: NCI-H522 lung
CAKI-1 renal = tested on: CAKI-1 renal
HCT-15 colon = tested on: HCT-15 colon
MDA-MB-435 = tested on: MDA-MB-435
ACHN renal = tested on: ACHN renal

O=C(NCCN1CCCC1)c1ccc(-c2nc3ccc4[nH]ncc4c3c3c2CCCC3)cc1
GI50 (MDA-MB-231 breast): 796 nM
TGI (MDA-MB-231 breast): 2430 nM
GI50 (BT-549 breast): 384 nM
TGI (BT-549 breast): 1160 nM
GI50 (NCI-H460 lung): 628 nM
TGI (NCI-H460 lung): 1570 nM
GI50 (A498 renal): 193 nM
TGI (A498 renal): 911 nM
GI50 (MALME-3M melanoma): 769 nM
TGI (MALME-3M melanoma): 1650 nM
GI50 (NCI-H226 lung): 716 nM
TGI (NCI-H226 lung): 5250 nM
GI50 (SW-620 colon): 607 nM
TGI (SW-620 colon): 3140 nM
GI50 (RPMI-8226 leukemia): 871 nM
TGI (RPMI-8226 leukemia): 2270 nM
GI50 (UO-31 renal): 1400 nM
TGI (UO-31 renal): 6340 nM
GI50 (HS 578T breast): 189 nM
TGI (HS 578T breast): 1390 nM
GI50 (SNB-75 CNS): 259 nM
TGI (SNB-75 CNS): 1850 nM
GI50 (HL-60(TB) leukemia): 978 nM
TGI (HL-60(TB) leukemia): 2320 nM
GI50 (NCI-H23 lung): 802 nM
TGI (NCI-H23 lung): 2460 nM
GI50 (T-47D breast): 1070 nM
TGI (T-47D breast): 6100 nM
GI50 (SN12C renal): 882 nM
TGI (SN12C renal): 4460 nM
GI50 (DU-145 prostate): 677 nM
TGI (DU-145 prostate): 5340 nM
GI50 (SF-268 CNS): 703 nM
TGI (SF-268 CNS): 1790 nM
GI50 (KM12 colon): 237 nM
TGI (KM12 colon): 2910 nM
GI50 (HCC-2998 colon): 870 nM
TGI (HCC-2998 colon): 2820 nM
GI50 (SK-MEL-28 melanoma): 919 nM
TGI (SK-MEL-28 melanoma): 2680 nM
GI50 (UACC-257 melanoma): 1050 nM
TGI (UACC-257 melanoma): 2440 nM
GI50 (SK-MEL-5 melanoma): 1100 nM
TGI (SK-MEL-5 melanoma): 2530 nM
GI50 (SK-OV-3 ovarian): 232 nM
TGI (SK-OV-3 ovarian): 2170 nM
GI50 (IGROV1 ovarian): 351 nM
TGI (IGROV1 ovarian): 4060 nM
GI50 (SF-539 CNS): 515 nM
TGI (SF-539 CNS): 1170 nM
GI50 (CCRF-CEM leukemia): 497 nM
TGI (CCRF-CEM leukemia): 3270 nM
GI50 (SR leukemia): 94.1 nM
TGI (SR leukemia): 1900 nM
GI50 (HOP-92 NSCLC): 99.7 nM
TGI (HOP-92 NSCLC): 864 nM
GI50 (NCI/ADR-RES ovarian): 10700 nM
TGI (NCI/ADR-RES ovarian): 50000 nM
GI50 (M14 melanoma): 729 nM
TGI (M14 melanoma): 1550 nM
GI50 (EKVX NSCLC): 850 nM
TGI (EKVX NSCLC): 5150 nM
GI50 (LOX IMVI melanoma): 622 nM
TGI (LOX IMVI melanoma): 1360 nM
GI50 (RXF 393 renal): 241 nM
TGI (RXF 393 renal): 955 nM
GI50 (UACC-62 melanoma): 1200 nM
TGI (UACC-62 melanoma): 5600 nM
GI50 (SNB-19 CNS): 1130 nM
TGI (SNB-19 CNS): 5060 nM
GI50 (HT29 colon): 996 nM
TGI (HT29 colon): 3510 nM
GI50 (K-562 leukemia): 760 nM
TGI (K-562 leukemia): 3880 nM
GI50 (MOLT-4 leukemia): 486 nM
TGI (MOLT-4 leukemia): 2640 nM
GI50 (MCF7 breast): 807 nM
TGI (MCF7 breast): 4150 nM
GI50 (OVCAR-8 ovarian): 798 nM
TGI (OVCAR-8 ovarian): 3160 nM
GI50 (OVCAR-4 ovarian): 1050 nM
TGI (OVCAR-4 ovarian): 5080 nM
GI50 (A549 NSCLC): 1090 nM
TGI (A549 NSCLC): 5540 nM
GI50 (TK-10 renal): 443 nM
TGI (TK-10 renal): 7360 nM
GI50 (SK-MEL-2 melanoma): 726 nM
TGI (SK-MEL-2 melanoma): 1880 nM
GI50 (SF-295 CNS): 1060 nM
TGI (SF-295 CNS): 4160 nM
GI50 (OVCAR-5 ovarian): 1390 nM
TGI (OVCAR-5 ovarian): 4440 nM
GI50 (U251 CNS): 717 nM
TGI (U251 CNS): 2250 nM
GI50 (COLO 205 colon): 625 nM
TGI (COLO 205 colon): 1490 nM
GI50 (786-0 renal): 580 nM
TGI (786-0 renal): 1350 nM
GI50 (PC-3 prostate): 682 nM
TGI (PC-3 prostate): 2770 nM
GI50 (HCT-116 colon): 252 nM
TGI (HCT-116 colon): 2020 nM
GI50 (HOP-62 NSCLC): 497 nM
TGI (HOP-62 NSCLC): 2140 nM
GI50 (NCI-H522 lung): 289 nM
TGI (NCI-H522 lung): 1050 nM
GI50 (CAKI-1 renal): 199 nM
TGI (CAKI-1 renal): 4380 nM
GI50 (HCT-15 colon): 1910 nM
TGI (HCT-15 colon): 7430 nM
GI50 (MDA-MB-435): 654 nM
TGI (MDA-MB-435): 3890 nM
GI50 (ACHN renal): 1070 nM
TGI (ACHN renal): 5890 nM
